Experimental data: PMC3325759 (Journal of Natural Products, 2011)

Legend:
[1] = target: human recombinant CB1 receptor (Homo sapiens, UniProt P21554); assay: biochemical; type: binding
[2] = system: H-460 human lung cell lines; assay: Cytotoxicity to H-460 cells; type: cell-based; conditions: all tested concentrations (up to 20 µg/mL)

human recombinant CB1 receptor, sequence (P21554 whole entry): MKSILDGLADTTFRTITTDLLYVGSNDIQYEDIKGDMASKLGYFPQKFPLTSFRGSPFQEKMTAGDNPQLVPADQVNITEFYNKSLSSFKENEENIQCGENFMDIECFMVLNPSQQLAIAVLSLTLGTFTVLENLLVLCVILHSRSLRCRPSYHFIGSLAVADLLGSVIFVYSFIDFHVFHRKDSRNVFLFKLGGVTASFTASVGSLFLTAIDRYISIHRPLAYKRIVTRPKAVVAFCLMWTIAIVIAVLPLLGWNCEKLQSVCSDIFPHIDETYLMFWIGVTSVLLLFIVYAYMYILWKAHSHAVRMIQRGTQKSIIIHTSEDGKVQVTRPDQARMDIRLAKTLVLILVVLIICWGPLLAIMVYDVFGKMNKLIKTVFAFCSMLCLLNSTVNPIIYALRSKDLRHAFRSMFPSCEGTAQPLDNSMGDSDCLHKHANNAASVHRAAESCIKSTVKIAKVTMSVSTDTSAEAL

SMILES: CCCCCCCCCCCCC/C=C/CCC(=O)N(C)[C@H](CO)COC [compound 3, serinolamide A]
- EC50 [1]: 2.3 µM

SMILES: C=C(CCCCCCCCCCCCC)CCCC(=O)O/C=C\COC(C)=O [compound 4, propenediester]
- affinity for the CB1 cannabinoid receptor (in words) ([1]; radioligand binding assay): completely inactive
- cytotoxicity (in words) [2]: inactive
